Experiments:
[1] = target: T1, CHO cells expressing α2β1 integrin (Homo sapiens, UniProt P05556+P17301); experiment: Cell adhesion assay, CHO-α2 cells on collagen type I; type: cell-based, Chinese Hamster; details: for Emax at 100 µM / inhibition at 50 µM: CHO; for EC50: CHO-α2 cells, collagen type I, read-out: EC50, adhesion
T1 sequence (P17301 1-1181): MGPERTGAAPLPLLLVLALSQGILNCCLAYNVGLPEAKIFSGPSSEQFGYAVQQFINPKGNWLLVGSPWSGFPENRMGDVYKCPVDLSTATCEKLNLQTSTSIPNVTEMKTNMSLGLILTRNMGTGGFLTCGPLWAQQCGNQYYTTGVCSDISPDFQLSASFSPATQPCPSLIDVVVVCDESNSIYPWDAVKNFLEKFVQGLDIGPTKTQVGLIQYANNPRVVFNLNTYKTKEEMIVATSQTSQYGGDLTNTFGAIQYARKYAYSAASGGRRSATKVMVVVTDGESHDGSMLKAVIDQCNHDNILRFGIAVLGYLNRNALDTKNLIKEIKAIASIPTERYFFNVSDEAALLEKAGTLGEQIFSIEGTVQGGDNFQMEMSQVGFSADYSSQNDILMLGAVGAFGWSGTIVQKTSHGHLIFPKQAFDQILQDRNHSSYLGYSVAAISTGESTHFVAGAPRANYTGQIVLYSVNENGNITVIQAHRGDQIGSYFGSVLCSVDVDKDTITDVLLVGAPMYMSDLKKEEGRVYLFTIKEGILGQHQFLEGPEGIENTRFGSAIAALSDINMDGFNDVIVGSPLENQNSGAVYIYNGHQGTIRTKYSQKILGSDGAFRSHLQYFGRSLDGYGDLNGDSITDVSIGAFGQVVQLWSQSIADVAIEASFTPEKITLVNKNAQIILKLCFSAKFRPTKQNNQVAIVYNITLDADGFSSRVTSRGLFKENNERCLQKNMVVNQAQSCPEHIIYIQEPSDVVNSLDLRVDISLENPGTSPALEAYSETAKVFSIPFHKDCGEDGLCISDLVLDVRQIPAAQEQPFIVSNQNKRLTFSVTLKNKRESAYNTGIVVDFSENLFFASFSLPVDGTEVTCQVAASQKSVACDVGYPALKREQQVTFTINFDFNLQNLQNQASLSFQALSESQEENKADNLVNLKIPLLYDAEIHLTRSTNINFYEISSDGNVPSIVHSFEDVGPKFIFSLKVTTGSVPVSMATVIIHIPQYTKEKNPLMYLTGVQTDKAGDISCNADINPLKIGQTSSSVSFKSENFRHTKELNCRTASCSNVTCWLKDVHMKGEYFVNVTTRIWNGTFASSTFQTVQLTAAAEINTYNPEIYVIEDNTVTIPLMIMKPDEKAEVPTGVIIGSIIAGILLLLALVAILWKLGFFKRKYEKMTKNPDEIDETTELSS
Experimental: (§1) Chinese Hamster Ovary (CHO) cell clone expressing wild type α2 integrin was used in cell adhesion assay. Cells were suspended in serum free medium containing 0.1 mg/ml cycloheximide (Sigma) and the compounds were preincubated with the cells prior to transfer to the wells. Cells (150000/well) were allowed to attach on collagen type I coated wells (in the presence and absence of inhibitor compounds) for 2 h at +37° C. and after that non-adherent cells were removed. Fresh serum free medium was added and the living cells were detected using a cell viability kit (Roche) according to the manufacturers protocol.
(§2) For this purpose CHO cells were transfected to express α2β1 integrin on their surface as their only collagen receptor.

α1 I-domain [2] = target: T2, α1 I-domain (Homo sapiens, UniProt P56199); experiment: Solid-phase binding assay, α1 I-domain binding to type IV collagen; details: FIG. 6B
T2 construct: corresponding to amino acids 123-338 of the whole α1 integrin; made in house; host or cells: E. coli BL21 (pGEX-4T-3)
T2 sequence (P56199 151-366): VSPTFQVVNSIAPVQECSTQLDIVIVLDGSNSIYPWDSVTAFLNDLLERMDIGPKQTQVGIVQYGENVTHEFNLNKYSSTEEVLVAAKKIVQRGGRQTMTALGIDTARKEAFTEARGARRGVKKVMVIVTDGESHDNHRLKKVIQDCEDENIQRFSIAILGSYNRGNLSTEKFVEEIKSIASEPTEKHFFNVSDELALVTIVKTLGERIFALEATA
Experimental: (§3) Solid-phase binding assay for α1-domains—The coating of a 96-well high binding microtiter plate (Nune) was done by exposure to 0.1 ml of PBS containing 5 μg/cm2 (15 μg/ml) collagens or 20 μg/ml triple-helical peptides overnight at +4° C. Blank wells were coated with 1:1 solution of 0.1 ml Delfia® Diluent II (Wallac) and PBS. Residual protein absorption sites on all wells were blocked with 1:1 solution of 0.1 ml Delfia® Diluent II (Wallac) and PBS. Recombinant proteins (αI-GST) were added to the coated wells at a desired concentration in Delfia® Assay Buffer and incubated for 1 h at room temperature. Europium-labelled anti-GST antibody (Wallac) was then added (typically 1:1000), and the mixture was incubated for 1 h at room temperature. All incubations mentioned above were done in the presence of 2 mM MgCl2. Delfia® enhancement solution (Wallac) was added to each well and the Europium signal was measured by time-resolved fluorometry (Victor2 multilabel counter, Wallac). At least three parallel wells were analyzed. In some cases some what modified solid-phase assay was used and it was performed according Tulla et al, 2001. It uses anti-GST and Europium-labelled protein G instead of Europium-labelled anti-GST antibody. […]

α2 I-domain [3] = target: T3, α2 I-domain (Homo sapiens, UniProt P17301); experiment: Solid-phase binding assay, α2 I-domain binding to type IV collagen; details: FIG. 6B
T3 construct: corresponded to amino acids 124-339 of the whole α2 integrin; made in house; host or cells: E. coli BL21 (pGEX-2T)
T3 sequence (P17301 153-368): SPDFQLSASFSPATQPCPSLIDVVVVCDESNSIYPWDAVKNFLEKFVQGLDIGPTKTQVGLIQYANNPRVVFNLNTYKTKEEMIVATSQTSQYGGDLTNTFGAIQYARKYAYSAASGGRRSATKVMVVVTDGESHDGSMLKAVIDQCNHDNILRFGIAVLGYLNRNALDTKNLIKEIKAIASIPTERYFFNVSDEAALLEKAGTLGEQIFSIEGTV
Experimental: as §3

α2 I-domain [4] = target: T3, α2 I-domain; experiment: α2 I-domain binding to RKK-peptide (europium-labelled protein G assay); details: FIG. 7B
Experimental: (§4) Solid-phase binding assay for α1-domains—The coating of a 96-well high binding microtiter plate (Nune) was done by exposure to 0.1 ml of PBS containing 5 μg/cm2 (15 μg/ml) collagens or 20 μg/ml triple-helical peptides overnight at +4° C. Blank wells were coated with 1:1 solution of 0.1 ml Delfia® Diluent II (Wallac) and PBS. Residual protein absorption sites on all wells were blocked with 1:1 solution of 0.1 ml Delfia® Diluent II (Wallac) and PBS. Recombinant proteins (αI-GST) were added to the coated wells at a desired concentration in Delfia® Assay Buffer and incubated for 1 h at room temperature. Europium-labelled anti-GST antibody (Wallac) was then added (typically 1:1000), and the mixture was incubated for 1 h at room temperature. All incubations mentioned above were done in the presence of 2 mM MgCl2. Delfia® enhancement solution (Wallac) was added to each well and the Europium signal was measured by time-resolved fluorometry (Victor2 multilabel counter, Wallac). At least three parallel wells were analyzed. In some cases some what modified solid-phase assay was used and it was performed according Tulla et al, 2001. It uses anti-GST and Europium-labelled protein G instead of Europium-labelled anti-GST antibody.
RKK-peptides are known to bind to MIDAS of α2 I-domain (Ivaska et al., 1999). […]

α2 I-domain [5] = target: T3, α2 I-domain; experiment: Solid-phase binding assay, α2 I-domain binding to type I collagen; details: for inhibition of α2 I-domain binding to type I collagen (in words): FIG. 6B, 7A, 8A
Experimental: as §4
(§5) The tetracyclic Streptomyces compounds synthesised in Example 1, where screened for inhibition of collagen binding to α1 and α2 I-domains, using the α I-domain assay described in Example 4. […] L3015 could inhibit the binding of both α1I and α2 I-domains to type I and type IV collagen (FIG. 6B).
Based on the utilization of 3D model other compounds from the polyketide family were tested. The compounds were tested in the europium-labelled anti-GST assay described in Example 4. Tetracyclic polyketides L3007, L3008, and L3009 could inhibit α2 I-domain binding to type I collagen (FIG. 8A).

α1 I-domain [6] = target: T2, α1 I-domain; experiment: Solid-phase binding assay, α1 I-domain binding to type I collagen; details: FIG. 6B, 7A
Experimental: as §4, §5
Furthermore α1I and α2 I-domain binding to collagen I in the presence of lovastatin was tested in the europium-labelled anti-GST assay described in Example 4. Lovastatin is an allosteric inhibitor of leukocyte integrin α I-domains (e.g. αL I-domain), and the binding site of lovastatin represents an optional binding site for possible modulators. […] These biological tests gave further evidence that collagen receptor α I-domains are inhibited by direct blocking of the MIDAS surface by tetracyclic polyketide.

[7] = target: T4, CHO cells expressing α2β1 integrin (Homo sapiens, UniProt P17301); experiment: Cell adhesion assay, CHO-α2 cells on collagen type I; type: cell-based, Chinese Hamster; details: FIG. 10A, 10B
T4 sequence (P17301 1-1181): T1 sequence (P17301 1-1181)
Experimental: as §1, §2

[8] = system: platelet aggregation in whole blood; experiment: Platelet function analyzer PFA-100 closure time of whole blood; type: cell-based; details: PFA-100, collagen plus epinephrine; FIG. 12
Experimental: Mean and standard deviations were calculated for each treatment.

[9] = system: CHO expressing mutated α2β1 integrin (tyrosine 285, leucine 286, leucine 296); experiment: Cell adhesion assay with CHO cells expressing mutated α2β1 integrin; type: cell-based, Chinese Hamster; details: data not shown
PC-3 cells = experiment: Cell invasion assay, PC-3 cells through Matrigel; type: cell-based; details: Homo sapiens, 72 hours
Experimental: Experimental procedure. […] Inserts were stored at −20° C. […] The remaining media was aspirated. […] Inserts were allowed to dry. Fixed invaded cells were calculated under the microscope. Invasion % was calculated as a comparison to the control.

Compound	Emax at 100 µM [1] [%]	EC50 [1] [µM]	other results
CN(c1ccc(NC(=O)N2CCNC2=O)cc1)S(=O)(=O)c1cccc(-c2ccc(F)cc2)c1 [Compound 430]	59	14	–
CCc1cc(O)c2c(O)c3c(cc2c1C(=O)OC)C(=O)c1cccc(O)c1C3=O [Compound L3015, methyl 2-ethyl-4,5,7-trihydroxy-6,11 dioxonaphthacenecarboxylate]	–	–	inhibition of α1 I-domain binding to type IV collagen (in words) (α1 I-domain [2]): could inhibit; inhibition of α2 I-domain binding to type IV collagen (in words) (α2 I-domain [3]): could inhibit; displacement of RKK peptide at MIDAS (α2 I-domain [4]): can displace; inhibition of α2 I-domain binding to type I collagen (in words) (α2 I-domain [5]): could inhibit; inhibition at 30 µM (α2 I-domain [5]; at 0.03 mM concentration, dose dependent, FIG. 6A): ~50%; inhibition of α1 I-domain binding to type I collagen (in words) (α1 I-domain [6]): could inhibit
O=C(c1ccccc1)c1ccc(NS(=O)(=O)c2cccc(-c3ccc(F)cc3)c2)cc1 [Compound 384]	81	12	–
O=C(c1ccccc1)c1ccc(NS(=O)(=O)c2ccc(Cl)cc2Cl)cc1 [Compound 416]	79	42	inhibition at 50 µM [1]: 44%
methyl 2-ethyl-2,5,7,12-tetrahydroxy-4,6,11-trioxo-1,2,3-trihydronaphthacene-carboxylate [Compound L3007]	–	–	inhibition of α2 I-domain binding to type I collagen (in words) (α2 I-domain [5]): could inhibit
O=C(c1ccccc1)c1cccc(NS(=O)(=O)c2cccc(-c3ccc(F)cc3)c2)c1 [Compound 432]	79	15	–
CC(=O)c1ccc(NS(=O)(=O)c2cccc(-c3ccc(F)cc3)c2)cc1 [Compound 383]	–	39	–
O=C(c1ccccc1)c1ccc([N-]S(=O)(=O)c2cccc(-c3ccc(F)cc3)c2)cc1.[Na+] [Compound 434]	–	9.1	inhibition of cell adhesion to collagen type I (in words) [7]: potent inhibitor; Emax at 100 µM ([1]; at 100 uM): 78%; closure time of the blood [8]: increase the closure time; effect of mutation of tyrosine 285, leucine 286, leucine 296 on the inhibitory effect in adhesion of CHO cells expressing α2β1 to collagen I [9]: significantly decreased
CN(C)c1ccc(N(CCO)S(=O)(=O)c2cccc(-c3ccc(F)cc3)c2)cc1 [Compound 359]	67	39	–
CN(C)c1ccc(N(CCn2ccnc2)S(=O)(=O)c2cccc(-c3ccc(F)cc3)c2)cc1 [Compound 358]	74	30	–
O=S(=O)(Nc1cccc(-c2ccc(F)cc2)c1)c1ccc(Cl)cc1Cl [Compound 403]	86	37	–
CCc1cc(O)c2c(O)c3c(c(O)c2c1C(=O)OC)C(=O)c1cccc(O)c1C3=O [Compound L3008, methyl 2-ethyl-4,5,7,12-tetrahydroxy-6,11-dioxonaphthacenecarboxylate]	–	–	inhibition of α2 I-domain binding to type I collagen (in words) (α2 I-domain [5]): could inhibit; effect of mutation of tyrosine 285, leucine 286, leucine 296 on the inhibitory effect in adhesion of CHO cells expressing α2β1 to collagen I [9]: significantly decreased
O=S(=O)(Nc1cccc(-c2ccc(F)cc2)c1)c1ccc(Cl)cc1 [Compound 398]	–	16	inhibition at 50 µM [1]: 83%
CC[C@H](C)C(=O)O[C@H]1C[C@@H](C)C=C2C=C[C@H](C)[C@H](CC[C@@H]3C[C@@H](O)CC(=O)O3)[C@H]21 [lovastatin, reference compound]	–	–	inhibition of α2 I-domain binding to type I collagen (in words) (α2 I-domain [5]): no effect; inhibition of α1 I-domain binding to type I collagen (in words) (α1 I-domain [6]): no effect
CN(C)CCN(c1ccc(N(C)C)cc1)S(=O)(=O)c1cccc(-c2ccc(F)cc2)c1 [Compound 354]	89	29	–

Further lines, with some results ahead:

Emax at 100 µM [1] [%]	EC50 [1] [µM]	Compound	other results
22	–	Cn1cccc1C(=O)Nc1ccc(NS(=O)(=O)c2cccc(-c3ccc(F)cc3)c2)cc1 [Compound 442]	–
74	38	N#Cc1ccc(NS(=O)(=O)c2cccc(-c3ccc(F)cc3)c2)cc1 [Compound 448]	–
78	8.7	O=[N+]([O-])c1ccc(NS(=O)(=O)c2cccc(-c3ccc(F)cc3)c2)cc1 [Compound 440]	–
–	9.4	O=S(=O)(Nc1ccc(C(O)c2ccccc2)cc1)c1cccc(-c2ccc(F)cc2)c1 (centres unmarked) [Compound 452]	inhibition at 50 µM [1]: 83%; EC50 (PC-3 cells): 0.8 µM

From patent US20090286713A9, “Collagen Receptor I-Domain Binding Modulators” (Biotie Therapies Corporation, priority 2005, published 2009)
